# Values of other authors, collected in US20080089861A1, “Combination therapy for treatment of demyelinating conditions” (priority 2006, published 2008).
# Entries after “also recorded” stand apart in the source; their conditions may differ.
# Conditions: human
structure (smiles),measurement,value
"CC12CC3CC(C)(C1)CC(N)(C3)C2 [Memantine, 1-amino-3,5-dimethyladamantane]",Dose Dependent Tox,Dose escalation; also recorded: hallucination
